Common to all, as to assay type: physicochemical
Data set [1] in a line: Transmission spectra of Ni-dye complexes on mordanted receiving element (Example 1). The note with it: nickel sulfate/gelatin + poly(4-vinylpyridine)/gelatin mordant receiver; pH 7.0 buffer; normalized to density 1.0.
Data set [2] is described as follows: Light stability (percent fade after HID xenon arc irradiation). The note with it: 10 days HID 6000 W xenon arc, 50,000 lux, Wratten 2B filter, approx. 38° C., low humidity, pH 7. From the text: An alternative receiving element was used with the premetallized dye-complexes. It comprised a poly(ethylene terephthalate) film support having thereon a layer of gelatin (1.1 g/m^2) and a mordant layer of poly(styrene-co-1-vinylimidazole-co-3-benzyl-1-vinylimidazolium chloride (50:40:10) (4.5 g/m^2) and gelatin (2.2 g/m^2).
The above receiving elements at pH 7 were then subjected to 10 days irradiation by a high intensity daylight (HID), 6000 W Xenon arc lamp, the sample receiving 50,000 lux through a Wratten 2B (ultraviolet) filter at approximately 38° C. and low humidity. The percent fade represents the loss in density at λmax after irradiation.

Data set [3] can be described thus: Dye diffusion, solution test. The conditions noted are these: pH 13.4, 0.0025 M dye. From the text: The released dyes in Table I were also subjected to the conditions of two different dye diffusion tests. One, the "solution test" involved dissolving the dye in a viscous composition and transferring it through a receiving element which contains an opaque and reflecting layer in addition to the mordant layer. The other, a "gel pad test" involved imbibing the dye from solution into a thick gelatin layer, and then transferring it by direct lamination to the same receiving element which had been preswollen by soaking 5 minutes in a solution of […].
A transparent poly(ethylene terephthalate) film support coated with
(3) an overcoat layer of gelatin (4.3).
The viscous composition was prepared from 46.2 g potassium hydroxide and 54 g carboxymethylcellulose dissolved in 1200 ml water. […] Measurement of the rate of dye diffusion was commenced at the point at which half of the laminate had passed through the rollers. The appearance of dye on the mordant was measured at λmax as diffuse reflection density vs. time. The reflection density was converted to transmission density by computer with the aid of a mathematical relation derived from a previous calibration. A plot of transmission density, which is proportional to concentration vs. time, was derived; and the value of t-1/2 of dye transfer, the time in seconds required to obtain one-half of the maximum transmission density, calculated.

The nature of data set [4]: Spectra of Ni-dye complexes in solution. The note with it: 3:1 dioxane:water, pH 7, excess nickel ion. An excerpt: The receiver was removed from the dye solution, washed in distilled water, placed in a pH 7.0 buffer solution and dried. Transmission spectra obtained on each sample of the mordanted dyes were normalized by computer to a density of 1.0. The characteristic wavelength of the dye, λ1/2 in nm, is the mean of the wavelength limits of the absorption envelope at half the maximum density. The HBW ("half band width") in nm is the range or distance between those limits. The dye solution spectrum in 3:1 dioxane:water at pH 7 in the presence of excess nickel ion is also given.

The nature of data set [5]: Extinction in solution with Ni2+ (synthesis examples). The conditions noted are these: 3:1 dioxane-pH 6 buffer + Ni^2+. The procedure:
To a solution of 5.5 g (12.1 mmol) Compound E in 200 ml tetrahydrofuran, 100 ml pyridine and 4.8 g (37.2 mmol) N,N-diisopropylethylamine was added 3.0 g (3.17 mmol) 3,6-bis(1-p-t-butylphenylethyl)-2,5-bis(N-n-dodecylchloroformamidomethyl)benzoquinone (see U.S. Pat. No. 4,204,870, Col. 31). After stirring for 1 hour, an additional 2.5 g (2.64 mmol) of the acid chloride is added and the reaction stirred 28 hours at room temperature. The crude reaction mixture was concentrated to ca. 100 ml in vacuo at 40° C. and the residue was partitioned between ethyl acetate and 3 N HCl. The layers were separated, the organic phase washed with 3 N HCl (until washings were acidic), water and saturated sodium chloride solution. After drying (MgSO4) the organic phase was evaporated in vacuo and the residue recrystallized twice from 350-400 ml ethanol. Yield 7.5 g (72 percent) of yellow solid: ε^550 =13.0×10^4 (3:1 dioxane-pH 6 buffer+excess Ni^2+).
A solution of 5.0 g (31.4 mmol) quinoline-5,8-quinone [T. Urbanski and S. Krzyzanowski, Roczniki Chem., 27, 390 (1953); Chem. Abstr., 49, 1041b (1955)] in 50 ml ethyl alcohol and 100 ml tetrahydrofuran was chilled to <5° C. Concentrated HCl (1 ml) and a cold slurry of 10.0 g (31.8 mmol) 3-chloro-5-(m-hydroxyphenylsulfamoyl)-7-pyridylhydrazine in 100 ml ethyl alcohol/0.5 ml concentrated HCl were added in that order. […]

SMILES strings stand for the structures.

In the case of `O=S(=O)(Nc1cccc(O)c1)c1cnc(N=Nc2ccc(O)c3cccnc23)c(Cl)c1` [Compound E, 8-[3-Chloro-5-(m-hydroxyphenylsulfamoyl)-2-pyridylazo]-5-quinolinol], in data set [1], the “Mordant HBW of Ni-dye complex” value came out at 70 nm and the “Mordant λ1/2 of Ni-dye complex” value came to 550 nm. In data set [2], the “% Fade (loss in density at λmax)” value is 1%. In data set [3], the “Dye diffusion t1/2, Soln.” value is 39 s. The “Solution λ1/2 of Ni-dye complex” value in data set [4] worked out at 544 nm. Further, the “Solution HBW of Ni-dye complex” value in data set [4] (half band width) is given as 65 nm. For the same molecule, the “ε^550” value in data set [5] is recorded as 6.6×10^4.

The values above are taken from patent US4436799A, “Photographic products and processes employing novel nondiffusible magenta dye-releasing compounds and precursors thereof” (priority 1983, dated 1984).
